US10577373B2, “TYK2 inhibitors and uses thereof” (Nimbus Lakshmi, Inc., priority 2017, dated 2020)
pIC50: −log10 of the molar value. Where two headings read alike, the source gives them in different places.

Tests used:
[1] = test system: GM-CSF induced STAT5 phosphorylation mediated by the JAK2/JAK2 homdimeric complex; assay: GM-CSF Induced pSTAT5 in Human PBMC
Text: Human PBMC are isolated from buffy coat and are stored frozen for assays as needed.

[2] = test system: IL-12 induced STAT4 phophorylation mediated by Tyk2/JAK2 (heterodimeric complex); assay: IL-12 Induced pSTAT4 in Human PBMC; type: cell-based; conditions: 1.7 ng/mL IL-12
Text: The IL-12 Induced pSTAT4 assay evaluates the inhibition of IL-12 induced STAT4 phophorylation mediated by Tyk2/JAK2 (heterodimeric complex).

[3] = Homo sapiens, PBMC, 20 min, read-out: PBMC_GMCSF_pSTAT5 IC50, human PBMC, GM-CSF 5 ng/mL for 20 minutes, pSTAT5
[4] = read-out: PBMC_GMCSF_pSTAT5 IC50, human PBMC, GM-CSF 5 ng/mL for 20 minutes, pSTAT5

| Structure (SMILES) | pIC50 [1, 3] | pIC50 [2] | pIC50 [1, 4] | pIC50 ([1]; Homo sapiens, PBMC, 20 min, read-out: PBMC_GMCSF_pSTAT5 IC50) |
| --- | --- | --- | --- | --- |
| CNc1cc(Nc2cccnc2OC2CC2)nc2c(C(=O)NCC3(CO)CC3)cnn12 [I-426] | < 4.30 | > 7.00 |  |  |
| CNc1cc(Nc2cccn(C[C@@H]3CCCCO3)c2=O)nc2c(C(=O)N[C@@H]3C[C@@H]3F)cnn12 [I-428] | < 4.30 | > 7.00 |  |  |
| CNc1cc(Nc2cccnc2OC)nc2c(C(=O)N[C@H]3CC[C@H]3O)cnn12 [I-429] | < 4.30 | > 7.00 |  |  |
| CNc1cc(Nc2cccnc2OC2CC2)nc2c(C(=O)NCC(C)CO)cnn12 (stereo not drawn) [I-435] | < 4.30 | 6.30 to 7.00 |  |  |
| CNc1cc(Nc2cccnc2OC)nc2c(C(=O)N[C@H]3C[C@@H]3O)cnn12 [I-438, N-((1S,2S)-2-hydroxycyclopropyl)-5-((2-methoxypyridin-3-yl)amino)-7-(methylamino)pyrazolo[1,5-a]pyrimidine-3-carboxamide] | < 4.30 | > 7.00 |  |  |
| CNc1cc(Nc2cccn([C@@H]3CCCOC3)c2=O)nc2c(C(=O)N[C@@H]3C[C@@H]3F)cnn12 [I-474] | < 4.90 | > 7.00 |  |  |
| CNc1cc(Nc2cccnc2OC)nc2c(C(=O)NC[C@H](C)CO)cnn12 [I-483] | < 4.30 | > 7.00 |  |  |
| [2H]C([2H])([2H])Oc1ncccc1Nc1cc(NC)n2ncc(C(=O)N[C@@H]3CCC[C@@H](O)C3)c2n1 [I-499] | < 4.30 | > 7.00 |  |  |
| [2H]C([2H])([2H])Oc1ncccc1Nc1cc(NC)n2ncc(C(=O)N[C@H]3CC[C@H](O)C3)c2n1 [I-500] | < 4.30 | > 7.00 |  |  |
| CNc1cc(Nc2cccn(-c3ncccc3F)c2=O)nc2c(C(=O)NCC(C)(C)CO)cnn12 [I-510] | < 4.30 | > 7.00 |  |  |
| CNc1cc(Nc2cccc(C3CCCOC3)n2)nc2c(C(=O)N[C@@H]3C[C@@H]3F)cnn12 (stereo partly drawn) [I-522] | < 4.30 | > 7.00 |  |  |
| CNc1cc(Nc2cccn([C@H]3CC[C@H](OC)CC3)c2=O)nc2c(C(=O)N[C@H]3CC[C@H]3O)cnn12 [I-539] | < 4.30 | > 7.00 |  |  |
| CNc1cc(Nc2cccn([C@H]3CC[C@H](OC)CC3)c2=O)nc2c(C(=O)N[C@H]3CC[C@@H]3O)cnn12 [I-540] | < 4.90 | > 7.00 |  |  |
| CNc1cc(Nc2cccn([C@H]3CC[C@H](OC)CC3)c2=O)nc2c(C(=O)NCC(C)(C)CO)cnn12 [I-544] | < 5.60 | > 7.00 |  |  |
| CNc1cc(Nc2cccn([C@H]3CC[C@H](OC)CC3)c2=O)nc2c(C(=O)NCC3(CO)CC3)cnn12 [I-545] | < 5.60 | 6.30 to 7.00 |  |  |
| CNc1cc(Nc2cccnc2OC2CC2)nc2c(C(=O)N[C@H]3COC[C@H]3O)cnn12 [I-547] | < 4.30 | 6.30 to 7.00 |  |  |
| CNc1cc(Nc2cccn(C3CC4(COC4)C3)c2=O)nc2c(C(=O)N[C@@H]3C[C@@H]3F)cnn12 [I-551, N-((1R,2S)-2-fluorocyclopropyl)-7-(methylamino)-5-((2-oxo-1-(2-oxaspiro[3.3]heptan-6-yl)-1,2-dihydropyridin-3-yl)amino)pyrazolo[1,5-a]pyrimidine-3-carboxamide] | < 5.60 | > 7.00 |  |  |
| CNc1cc(Nc2cc(F)cn([C@H]3CCCOC3)c2=O)nc2c(C(=O)N[C@H]3C[C@H]3F)cnn12 [I-559] | < 4.30 | > 7.00 |  |  |
| CNc1cc(Nc2cccn([C@H]3CC[C@H](OC)CC3)c2=O)nc2c(C(=O)N[C@@H]3CC[C@@H]3O)cnn12 [I-560] | < 5.60 | > 7.00 |  |  |
| CNc1cc(Nc2cccc([C@@H]3CCCOC3)n2)nc2c(C(=O)N[C@H]3C[C@H]3F)cnn12 [I-562] | < 4.30 | > 7.00 |  |  |
| CNc1cc(Nc2cccc([C@H]3CCCOC3)n2)nc2c(C(=O)N[C@H]3C[C@H]3F)cnn12 [I-563] | < 4.30 | > 7.00 |  |  |
| CNc1cc(Nc2cccn(C3CCN(CCF)CC3)c2=O)nc2c(C(=O)N[C@H]3C[C@H]3F)cnn12 [I-570] | < 4.30 | > 7.00 |  |  |
| CNc1cc(-c2cn(C(C)C)c3ncccc23)nc2c(C(=O)N[C@@H]3CC[C@@H]3O)cnn12 [I-578] | < 4.30 | > 7.00 |  |  |
| CNc1cc(-c2cn(CCN3CCCCC3)c3ncccc23)nc2c(C(=O)N[C@H]3C[C@H]3F)cnn12 [I-585] | < 4.90 | > 7.00 |  |  |
| CNc1cc(Nc2cccc(N3CCOCC3)n2)nc2c(C(=O)N[C@H]3C[C@H]3F)cnn12 [I-590] | < 4.90 | > 7.00 |  |  |
| CNc1cc(Nc2cccnc2OC)nc2c(C(=O)NOC(C)(C)C)cnn12 [I-612, N-(tert-butoxy)-5-((2-methoxypyridin-3-yl)amino)-7-(methylamino) pyrazolo[1,5-a]pyrimidine-3-carboxamide] |  | […] |  | < 4.30 |

Continued, in another order:

| pIC50 [1, 3] | pIC50 [2] | pIC50 [1, 4] | Structure (SMILES) | pIC50 ([1]; Homo sapiens, PBMC, 20 min, read-out: PBMC_GMCSF_pSTAT5 IC50) |
| --- | --- | --- | --- | --- |
| < 4.90 | > 7.00 |  | CNc1cc(Nc2cccc3ocnc23)nc2c(C(=O)NC3CC3)cnn12 [I-591] |  |
| < 4.90 | > 7.00 |  | CNc1cc(Nc2cccc3ocnc23)nc2c(C(=O)N[C@H]3C[C@H]3F)cnn12 [I-592] |  |
| < 5.60 | > 7.00 |  | CNc1cc(Nc2cccc([C@@H]3CCCOC3)n2)nc2c(C(=O)N[C@H]3CC[C@@H]3O)cnn12 [I-603] |  |
| < 4.90 | 6.30 to 7.00 |  | CNc1cc(Nc2cccn(-c3cn(C)nc3F)c2=O)nc2c(C(=O)NC3CC3)cnn12 [I-606] |  |
| < 4.30 | > 7.00 |  | CNc1cc(Nc2cccn(-c3cn(C)nc3F)c2=O)nc2c(C(=O)N[C@H]3C[C@H]3F)cnn12 [I-607] |  |
| < 4.30 | > 7.00 |  | CNc1cc(Nc2cccn([C@@H]3CCC[C@H](OC)C3)c2=O)nc2c(C(=O)NC3CC3)cnn12 [I-621] |  |
| < 5.60 | > 7.00 |  | CNc1cc(-c2cn(C(C)C)c3ncccc23)nc2c(C(=O)N[C@H]3C[C@H](O)C3)cnn12 [I-630, N-((1r,3r)-3-hydroxycyclobutyl)-5-(1-isopropyl-1H-pyrrolo[2,3-b]pyridin-3-yl)-7-(methylamino)pyrazolo[1,5-a]pyrimidine-3-carboxamide] |  |
| < 4.30 | > 7.00 |  | CNc1cc(Nc2cccn([C@H]3CC[C@H](OC)CC3)c2=O)nc2c(C(=O)N[C@@H]3CC[C@H]3O)cnn12 [I-635] |  |
| < 4.90 | > 7.00 |  | CNc1cc(-c2cn(C(C)C)c3ncccc23)nc2c(C(=O)N[C@H]3CC[C@H]3O)cnn12 [I-637] |  |
|  | > 7.00 | < 4.90 | CNc1cc(-c2cn(C(C)C)c3ncccc23)nc2c(C(=O)N[C@H]3CC[C@@H]3O)cnn12 [I-639] |  |
| < 4.90 | > 7.00 |  | CNc1cc(-c2cn(C(C)C)c3ncccc23)nc2c(C(=O)N[C@@H]3CC[C@H]3O)cnn12 [I-640] |  |
|  | > 7.00 | < 4.90 | CNc1cc(Nc2cccc3ocnc23)nc2c(C(=O)N[C@@H]3CC[C@@H]3O)cnn12 [I-661] |  |
| < 5.60 | > 7.00 |  | CNc1cc(Nc2cccc([C@@H]3CCCOC3)n2)nc2c(C(=O)N[C@@H]3CC[C@H]3O)cnn12 [I-665] |  |
| < 4.90 | > 7.00 |  | CNc1cc(Nc2cccc([C@H]3CCCOC3)n2)nc2c(C(=O)N[C@@H]3CC[C@H]3O)cnn12 [I-667] |  |
|  | > 7.00 | < 4.30 | CNc1cc(Nc2cccn([C@H]3CC[C@](C)(OC)CC3)c2=O)nc2c(C(=O)N[C@@H]3CC[C@@H]3O)cnn12 [I-670, N-(2-hydroxycyclobutyl)-5-((1-((1R,4S)-4-methoxy-4-methylcyclohexyl)-2-oxo-1,2-dihydropyridin-3-yl)amino)-7-(methylamino)pyrazolo[1,5-a]pyrimidine-3-carboxamide] |  |
| < 4.30 | > 7.00 |  | CNc1cc(Nc2cccn(-c3ncc(OC)cc3F)c2=O)nc2c(C(=O)N[C@H]3C[C@H]3F)cnn12 [I-673] |  |
|  | > 7.00 | < 5.60 | CNc1cc(Nc2cccn(-c3ncc(C)s3)c2=O)nc2c(C(=O)N[C@@H]3CC[C@@H]3O)cnn12 [I-677] |  |
| < 4.90 | > 7.00 |  | CNc1cc(Nc2cccn(-c3ccccn3)c2=O)nc2c(C(=O)NC3CC3)cnn12 [I-680] |  |
| < 4.90 | > 7.00 |  | CNc1cc(Nc2cccn(-c3ccccn3)c2=O)nc2c(C(=O)N[C@H]3C[C@H]3F)cnn12 [I-681] |  |
| < 4.30 | > 7.00 |  | CNc1cc(Nc2cc(Cl)cn(C3CCCOC3)c2=O)nc2c(C(=O)N[C@H]3C[C@H]3F)cnn12 (stereo partly drawn) [I-693] |  |
| < 4.30 | > 7.00 |  | CNc1cc(Nc2cccn(-c3nc(C)co3)c2=O)nc2c(C(=O)N[C@@H]3CC[C@@H]3O)cnn12 [I-706] |  |
| < 4.30 | > 7.00 |  | CNc1cc(Nc2cccc(N3CCC34COC4)n2)nc2c(C(=O)N[C@H]3C[C@H]3F)cnn12 [I-709] |  |
| < 4.30 | 6.30 to 7.00 |  | CNc1cc(Nc2cccnc2OC)nc2c(C(=O)NO)cnn12 [I-710, N-hydroxy-5-((2-methoxypyridin-3-yl)amino)-7-(methylamino)pyrazolo[1,5-a]pyrimidine-3-carboxamide] |  |
| < 4.30 | > 7.00 |  | CNc1cc(Nc2cc(Cl)cn(C3CCCOC3)c2=O)nc2c(C(=O)NC3CC3)cnn12 (stereo not drawn) [I-711] |  |
| < 4.90 | > 7.00 |  | CNc1cc(Nc2cc(Cl)cn(C3CCOCC3)c2=O)nc2c(C(=O)N[C@H]3CC[C@@H]3O)cnn12 [I-712] |  |
| < 5.60 | > 7.00 |  | CNc1cc(Nc2cccn(-c3ncco3)c2=O)nc2c(C(=O)NC3CC3)cnn12 [I-715] |  |
| < 5.60 | > 7.00 |  | CNc1cc(Nc2cccn(-c3ncco3)c2=O)nc2c(C(=O)N[C@H]3C[C@H]3F)cnn12 [I-716] |  |
| < 4.90 | > 7.00 |  | CNc1cc(Nc2cccn(-c3cnc(C)o3)c2=O)nc2c(C(=O)N[C@H]3C[C@H]3F)cnn12 [I-718] |  |
